Test results reported in patent EP0559625B1, “Esters of L-carnitine and acyl L-carnitine endowed with muscle relaxant activityselective on gastrointestinal tract and pharmaceutical compositions containing same” (Sigma-Tau Industrie Farmaceutiche Riunite S.p.A., priority 1992, dated 1993).

Assays:
[1] = biological target: sites associated to calcium channels labeled by ^3H-Nitrendipine; test: Binding to Ca++ channel sites labelled by 3H-Nitrendipine in rat brain; settings: rat brain cortex membranes; ^3H-Nitrendipine 0.5 nM, 60' at 30°C; inactive at 10^-5 M not tested higher; read-out: IC50 Uptake sites of Ca^++ channels labelled with ^3H-Nitrendipine
Protocol: (§1) The "binding" of the tested compounds to the sites associated to calcium channels labeled by ^3H-Nitrendipine, ^3H-Verapamil and ^3H-Diltiazem has been assayed in rat brain according to the method of Schoemaker H. et al. Eur. J. Pharmacol. 111, 273 (1985) and of Reynolds I.J. et al. Eur. J. Pharmacol. 95, 319 (1983).
(§2) Brain cortices are removed from decollated male CrI: CD (SD) BR rats weighing 250-300 g.
(§3) The tissues were homogenized in Tris-HCl buffer and centrifuged at 50000 x g for 10 minutes. The pellet was washed twice through a fresh buffer suspension and centrifuged at 50000 x g for 10 minutes.
(§4) After suspension of the precipitate in the incubation buffer the compounds under examination were added to the medium, starting from a concentration 10^-5 M. Incubation conditions were: ^3H-Nitrendipine (0.5 nM) x 60' at 30°C; ^3H-Verapamil (10 µM) x 20' at 37°C; and ^3H-d-cis Diltiazem (4 nM) x 60' at 30°C. Final volume was 1 ml. Incubation was stopped by rapid filtration under vacuum through GF/B (0.1% […]) fiber filters which were washed with cold incubation buffer (3 x 3 ml) using the system of filtration Brandel Cell Harvester. Filters were put in 8 ml of Optifluor (Packard) and the radioactivity bound to the membranes trapped by fibers counted by liquid scintillation spectrometer TRI-CARB 1900 CA (Packard). The counting efficiency was about 50%.
(§5) The percentage inhibition of the specific ^3H-ligand binding to its respective receptors was calculated for each concentration (mean of three incubates).
(§6) The competition curve, the slope of the curve and IC50^± standard deviation values (drug concentration that reduces specific ^3H-ligand binding to its respective receptors by 50% of its maximum value) were calculated by using the "Allfit" program (De Lean A. et al., Am. J. Physiol. 235, E97, 1978) running on an IBM 55-SH.

[2] = biological target: sites associated to calcium channels labeled by ^3H-Verapamil; test: Binding to Ca++ channel sites labelled by 3H-Verapamil in rat brain; settings: rat brain cortex membranes; ^3H-Verapamil (10 µM), 20' at 37°C; read-out: IC50 Uptake sites of Ca^++ channels labelled with ^3H-Verapamil
Protocol: as §1, §2, §3, §4, §5, §6

[3] = biological target: sites associated to calcium channels labeled by ^3H-Diltiazem; test: Binding to Ca++ channel sites labelled by 3H-Diltiazem in rat brain; settings: rat brain cortex membranes; ^3H-d-cis Diltiazem 4 nM, 60' at 30°C; read-out: IC50 Uptake sites of Ca^++ channels labelled with ^3H-Diltiazem
Protocol: as §1, §2, §3, §4, §5, §6

[4] = test system: mice; test: Assessment of behaviour and mortality in mice (Irwin's method); type: in vivo; settings: for Death rate: dead/treated, 4 animals/dose; for Symptoms: n.e. = no effect, (*) = in connection with death rate only
Protocol: The assessment of normal behaviour in mice was carried out following S. Irwin's method, Psychopharmacologia 13, 222 (1968). This method allows alterations in some behavioural, neurophysiologic and neurovegetative parameters to be detected, which are directly observable by the researcher. The study was conducted using male CrI: (CD-I)(ICR)BR mice (Charles River - Italy) weighing 22-25 g, following oral administration of the compounds suspended in carboxymethylcellulose (0.5% by weight in H2O) to groups of 4 animals/dose.
The animals were continuously kept under observation for five hours following treatment and twice a day in the subsequent five days. Mortality was also observed during the overall test period. The initial dose was 1000 mg/kg per os; lower doses were administered in case of death or if the initial dose brought about an excessive response.

[5] = test system: conscious spontaneously hypertensive rats (SHR); test: Effect on blood pressure and heart rate in conscious SHR; type: in vivo; settings: oral 100 mg/kg, 1, 2 and 4 hours after administration
Protocol: The effect of the substance has been tested after oral administration of 100 mg/kg to conscious spontaneously hypertensive rats (SHR). No changes of blood pressure and heart rate were observed 1, 2 and 4 hours after the administration. The experimental procedure was run according to Yeer T.T. et al, Life Sciences 22, 359 (1978).

[6] = test system: Rat portal vein; test: Rat portal vein: contractions evoked by high K+ concentrations; settings: at a concentration of 10 mg/ml
From the text: The effect of the compound on the contractions evoked by high K^+ concentrations in the rat portal vein has been tested according to Shetty S.S. et al., Europ. J. Pharm. 141, 485 (1989).

SMILES | IC50 [1] | IC50 [2] | IC50 [3] | Death rate ([4]; dose 1000 (mg/kg per os)) | Symptoms ([4]; dose 1000 (mg/kg per os)) | Death rate ([4]; dose 300 (mg/kg per os)) | Symptoms ([4]; dose 300 (mg/kg per os)) | Death rate ([4]; dose 600 (mg/kg per os)) | Symptoms ([4]; dose 600 (mg/kg per os)) | Death rate ([4]; dose 100 (mg/kg per os)) | Symptoms ([4]; dose 100 (mg/kg per os)) | changes of blood pressure [5] | changes of heart rate [5] | effect on the contractions evoked by high K^+ concentrations in the rat portal vein [6]
CC(C)COC(=O)C[C@H](C[N+](C)(C)C)OC(=O)C(C)C [ST 305] | 33000 nM | 3500 nM | > 10000 nM | 0/4 | n.e. | – | – | – | – | – | – | – | – | –
CCCCOC(=O)C[C@H](C[N+](C)(C)C)OC(=O)CC(C)C [ST 683] | > 10000 nM | 2400 nM | 15000 nM | 4/4 | convulsions (*) | 0/4 | n.e. | 2/4 | convulsions (*) | – | – | – | – | –
CC(C)COC(=O)C[C@H](C[N+](C)(C)C)OC(=O)CC(C)C [ST 684] | > 10000 nM | 1600 nM | 7800 nM | 0/4 | n.e. | – | – | – | – | – | – | – | – | –
CCCCCCCOC(=O)C[C@H](C[N+](C)(C)C)OC(=O)CC(C)C [ST 697] | > 10000 nM | 1500 nM | 500 nM | 4/4 | convulsions (*) | 1/4 | convulsions (*) | 2/4 | convulsions (*) | 0/4 | n.e. | – | – | –
CCCCCCCCCCCOC(=O)C[C@H](C[N+](C)(C)C)OC(=O)C(C)C [ST 712, Isobutyryl L-carnitine undecyl ester chloride] | 5300 nM | 2800 nM | 1200 nM | 0/4 | n.e. | – | – | – | – | – | – | – | – | –
CCCCCCCOC(=O)C[C@H](C[N+](C)(C)C)OC(=O)C(C)C [ST 713, isobutyryl L-carnitine heptyl ester chloride] | > 10000 nM | 1200 nM | 1300 nM | 4/4 | convulsions (*) | 2/4 | convulsions (*) | 3/4 | convulsions (*) | 0/4 | n.e. | – | – | –
CCCCCCCCCCCOC(=O)C[C@H](C[N+](C)(C)C)OC(=O)CC(C)C [ST 722, isovaleryl L-carnitine undecyl ester chloride] | 1600 nM | 380 nM | 1400 nM | 0/4 | salivation, diarrhea | – | – | – | – | – | – | No changes | No changes | inactive
CCCCCCCOC(=O)C[C@H](C[N+](C)(C)C)OC(C)=O [ST 904, acetyl L-carnitine heptyl ester chloride] | > 10000 nM | 3200 nM | > 10000 nM | 4/4 | convulsions (*) | 0/4 | n.e. | 2/4 | convulsions (*) | – | – | – | – | –
